Measured values reported in ChEMBL document CHEMBL5725612, “Pyridone FabI inhibitors and uses thereof” (2018).

Molecular target: T1, Enoyl-[acyl-carrier-protein] reductase [NADPH] FabI (Staphylococcus aureus, UniProt Q6GI75)
T1 sequence (Q6GI75 whole entry): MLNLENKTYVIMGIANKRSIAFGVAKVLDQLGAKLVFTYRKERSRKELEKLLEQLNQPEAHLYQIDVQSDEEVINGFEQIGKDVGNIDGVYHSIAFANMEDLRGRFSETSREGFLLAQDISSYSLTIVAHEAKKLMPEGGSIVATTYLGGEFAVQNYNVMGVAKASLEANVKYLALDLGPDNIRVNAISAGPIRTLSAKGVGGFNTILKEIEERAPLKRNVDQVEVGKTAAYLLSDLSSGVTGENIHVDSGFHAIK
Experiment: Tight-binding assay: Kinetics were performed on a Cary 100 spectrophotometer (Varian) at 20° C. Reaction velocities were measured by monitoring the oxidation of NAD(P)H to NAD(P)+ at 340 nm (Figure US10071965-20180911-P00001=6220 M−1 cm−1). For saFabI, the reaction mixture was identical to that described previously for progress curve experiments (Schiebel et al. (2012). Structure 20:802-13). For ecFabI, the final reaction mixture contained ecFabI (75 nM), trans-2-butenoyl-CoA (800 μM; Sigma and Advent Bio), NADH (300 μM; Sigma), NAD+ (400 μM; Sigma), and inhibitor (2 v/v % DMSO) in 50 mM potassium phosphate, pH 7.5, 150 mM NaCl, 8 v/v % glycerol. For InhA, the final reaction mixture contained InhA (100 nM), trans-2-octenoyl-CoA (200 μM), NADH (250 μM), NAD+ (200 μM), and inhibitor (2 v/v % DMSO) in 30 mM PIPES, pH 6.8, 150 mM NaCl, 1 mM EDTA, 8 v/v % glycerol. The resulting curves were fit to the Morrison and Walsh integrated rate equation (Equation 1) (Morrison et al.

## Oc1ccccc1Oc1ccccc1
  Ki: 24.5 µM
